Assay results: US20100129436A1, “SUBTANCES FOR THE PROTECTION OF CELLS AND/OR TISSUES” (priority 2007, published 2010)

Each molecule was assayed on endothelial cells, e.g. cells of the endothelium of the human umbilical cord vein (assay: Protection of cultured endothelial cells against cold-induced damage (lactate dehydrogenase release)). Settings: Homo sapiens, Endothelial cell; cells pre-incubated with test substance, medium replaced, then incubated e.g. 24 hours at 0° C; LDH in supernatant; read-out: EC50 (concentration at which 50% of the release of lactate dehydrogenase is inhibited).
Assay type: cell-based
Protocol: The active substances are synthesised as described below. The action of the substances on cold-induced damage to cells is quantified in a model system. For this purpose, endothelial cells, e.g. cells of the endothelium of the human umbilical cord vein, are cultured. The cells are incubated with various concentrations of the test substances for variable periods of time and then the medium is replaced by fresh medium without any test substance. Next, the cells are incubated e.g. for 24 hours at 0° C. At the end of the incubation period, the lactate dehydrogenase released is determined in the supernatant of the culture vessels by known methods, this concentration being a measure of cell damage. The effectiveness of the individual compounds is determined by the concentration at which 50% of the release of lactate dehydrogenase is inhibited (EC50).

Point of comparison: `CC(CCc1ccc(O)cc1)NCCc1ccc(O)c(O)c1` (stereo not shown) [Dobutamine, reference compound], EC50 5 µM. Against it:
- CNCC(O)c1ccc(O)c(O)c1 (stereo not shown) [Adrenalin, reference compound] — 120-fold higher, 600 µM
- NCCc1ccc(O)c(O)c1 [Dopamine, reference compound] — 15-fold higher, 75 µM
- O=C(CCc1ccccc1)NCCc1ccc(O)c(O)c1 [N-(3-Phenylpropanoyl) dopamine] — 1.8-fold higher, 9 ± 1 µM
- Cc1ccc(S(=O)(=O)NCCc2ccc(O)c(O)c2)cc1 [N-(4-Methylphenylsulfonyl) dopamine] — 2.4-fold higher, 12 ± 1 µM
- CCCCCCCCCC(=O)NCCc1ccc(O)c(O)c1 [N-Decanoyl dopamine] — 5.6-fold lower, 0.9 ± 0.2 µM
- CCCCCCCCCCCC(=O)NCCc1ccc(O)c(O)c1 [N-Dodecanoyl dopamine] — 4.2-fold lower, 1.2 ± 0.2 µM
- CCCCCCCC(=O)NCCc1ccc(O)c(O)c1 [N-Octanoyl dopamine] — 2.4-fold lower, 2.1 ± 0.2 µM
- CCCCCCCCCCCCCC(=O)NCCc1ccc(O)c(O)c1 [N-Tetradecanoyl dopamine] — 3.8-fold lower, 1.3 ± 0.2 µM
- NC[C@H](O)c1ccc(O)c(O)c1 [Noradrenalin, reference compound] — 140-fold higher, 700 µM

Same assay, conditions: cells pre-incubated with test substance, medium replaced, then incubated e.g. 24 hours at 0° C; LDH in supernatant; read-out: EC50 (concentration at which 50% of the release of lactate dehydrogenase is inhibited)

Point of comparison: `CCCCCCCCNC(=O)c1cc(O)ccc1O` [2,5-Dihydroxybenzoyl amidooctane], EC50 6 ± 1 µM. Against it:
- CCCCCCCCNC(=O)c1cccc(O)c1O [2,3-Dihydroxybenzoyl amidooctane] — 5-fold lower, 1.2 ± 0.1 µM
- CCCCCCCCNC(=O)c1ccc(O)c(O)c1 [3,4-Dihydroxybenzoyl amidooctane] — 2.5-fold lower, 2.4 ± 0.2 µM
